This note sets out measurements from US8361802B2, “Fluorescent ozone sensor” (University of Pittsburgh—Of the Commonwealth System of …, priority 2009, dated 2013).

The nature of data set [1]: Concentration dependence / sensitivity of fluorescent ozone detection. The following applies: MeOH/pH 7 buffer (5:95), samples diluted 10-fold. Here is the method:
FIG. 2B is a correlation between fluorescent intensity and ozone in 5:95 MeOH/pH 7 buffer after ten-fold dilution of original samples. The linear correlation is y=0.000900x+0.0467; R^2=0.987; average standard deviation=0.00844. The intensity continued to be linear up to 12.5 μM.
The present invention the sensitivity of our fluorescent method for ozone detection was examined. The fluorescent intensity correlated to the concentration of ozone in the 50 nM-12.5 μM (2.4-600 ppbv) range with S/B of 2.6-310 after 10-fold dilution of the original samples (0-500 nM shown in FIG. 2B). The level of detection is 59 nM (2.9 ppbv; S/B=3) and the level of quantitation is 340 nM (16 ppbv; S/B=10).
Concentration dependence. […] Error bars were determined from the calculated mean and standard deviation (Prism 5.0a, GraphPad Software, Inc.).

Data set [2] is described as follows: Ozone detection in nasal fluid. The following applies: ozone ~5 μM. Here is the method:
FIG. 2D illustrates Ozone detection in nasal fluid, wherein Left Sample: 4, no ozone; Right Sample: 4, + ozone.
One embodiment of the present invention is a biomedical probe to detect ozone. Since ozone is believed to be much too reactive to reach and permeate the epithelial cells, ozone detection in the presence of various antioxidants that are found in the epithelial lining fluid was attempted. […] Nasal fluid was tested to more accurately mimic the epithelial lining fluid of the lung.
Ozone detection in human pleural fluid. Human pleural fluid (1.0 mL) was diluted in pH 7 buffer ([PO4^3−]=5 mM) (3.0 mL). Solution A (5.0 μL, [compound 4]final=12.5 μM) was added to the resulting human pleural fluid mixture, and the samples were exposed to ozone (˜5 μM) at 24° C. followed by 1 hour incubation at 37° C. before fluorescence measurement. The experiment was performed in triplicate with an illustration of one of the tests represented in FIG. 2D.

The nature of data set [3]: Ozone detection in human serum. The following applies: human serum diluted in pH 7 buffer, ozone ~5 μM. How it is done: FIG. 2E illustrates Ozone detection in human serum, wherein Left Sample: 4, no ozone; Right Sample: 4, + ozone.
One embodiment of the present invention utilized sensor 4 to detect ozone in human serum. […] One possible explanation may be due to the small Stokes shift that is found in fluorescein and its derivatives, which makes these fluorophores more prone to influences of scattering and interference.
Ozone detection in human serum. Human serum (1.0 mL) was diluted in pH 7 buffer ([PO4^3−]=5 mM) (3.0 mL). Solution A (5.0 μL, [compound 4]final=12.5 μM) was added to the resulting human serum mixture, and the samples were exposed to ozone (˜5 μM) at 24° C. followed by 1 hour incubation at 37° C. before fluorescence measurement. The experiment was performed in triplicate with an illustration of one of the tests represented in FIG. 2E.

The nature of data set [4]: Ozone detection in ambient (outdoor) air. The following applies: 8 hours.
Experimental: In all cases, sensor 4=12.5 μM and all ozone assays were performed in 5:95 MeOH/pH 7 buffer. Solutions of senor 4 in 5:95 MeOH/pH 7 buffer were prepared and exposed to ambient air in various locations throughout a city on a hot, sunny day (˜32° C.) for 8 hours. A negative control was prepared in the same manner but incubated at 37° C. in a closed vial for 8 hours. […] Solutions of senor 4 ([4]final =12.5 μM) in 5:95 MeOH/pH 7 buffer ([PO4^3−]=5 mM) solution (4.0 mL) were prepared, and the samples were placed in high traffic outdoor areas for 8 hours. The samples were not exposed directly to sunlight. A negative control was prepared in the same manner but incubated at 37° C. in a closed vial for 8 hours. Following the 8 hour incubation period, the fluorescence of each sample was measured. Ozone detection in ambient air. Solution A (5.0 μL, [compound 4]final=12.5 μM) was added to a mixture of MeOH/pH 7 buffer ([PO4^3−]=5 mM) (5:95) (4.0 mL), and 4 samples were placed in 4 outdoor areas throughout University of Pittsburgh campus for 8 hours (high temperature=32.2° C.; AQI=43; PM2.5=64) on Jun. […] The samples were not exposed to direct sunlight. […] For each location, triplicate replicas were performed.
A short description of data set [5]: Time-dependence of the conversion of compound 4 to compound 7. To be noted: 37° C. How it is done: Time-dependence of the conversion of compound 4 to compound 7 in buffer. Solution A ([compound 4]final=12.5 μM) was added to a mixture of MeOH/pH 7 buffer ([PO4^3−]=5 mM) (5:95) (4.0 mL), and the sample was exposed to ozone (˜5 μM) at 24° C. followed by incubation at 37° C. Aliquots of the reaction mixture were taken out at various times for fluorescence measurement (FIG. S6). The conversion of compound 4 to compound 7 requires 60 minutes for completion (presumably the β-elimination is the rate determining step because the formation and fragmentation of molozonides are extremely rapid), but 10-15 minutes is sufficient to observe fluorescence signal.
FIG. 7 illustrates time-dependence of the conversion of compound 4 to compound 7 in cell culture media at 37° C. […]. Solution A ([compound 4]final=12.5 μM) was added to a mixture of 10% FBS in RPMI-1640 cell culture media/pH 7 buffer ([PO4^3−]=5 mM) (1:3) (4.0 mL), and the sample was exposed to ozone (˜5 μM) at 24° C. followed by incubation at 37° C. Aliquots of the reaction mixture were taken out at various times for fluorescence measurement (FIG. 8). The conversion of compound 4 to compound 7 requires 15-20 minutes for completion, but <5 minutes is sufficient to observe fluorescence signal. Although the exact mechanism of this enhancement is not known, catalysis of a β-elimination by action of bovine serum albumin has been previously reported.

A short description of data set [6]: Relative quantum yields. In kind it is physicochemical. The following applies: relative to fluorescein; phosphate buffer pH=7.0, excited at 490 nm. How it is done: Relative Quantum Yields. To determine quantum yields relative to fluorescein, a stock solution of compound 4 was prepared in DMSO (1 mM) and diluted in phosphate buffer (pH=7.0) to OD490=0.09. The samples were excited at 490 nm and the integrated emission spectra were compared. The quantum yields of all compounds were referenced to fluorescein in 0.1 N NaOH (Φ=0.95). The quantum yield for compound 4 was calculated as 0.00132

Where [7] appears, read: 10% FBS in RPMI-1640 cell culture media/pH 7 buffer (1:3).
The mark [8] stands for this setting: MeOH/pH 7 buffer (5:95), ozone ~5 μM.

Some results are limits rather than exact numbers.

On to `C=CCCOc1cc2oc3cc(=O)c(Cl)cc-3c(-c3ccccc3CO)c2cc1Cl` [compound 4], for which the “background signal (fluorescence intensity, λem=523 nm)” value in data set [1] was 0.0377×10^5. Moreover, the S/B in data set [2] is listed as 92; in data set [3] it was 92; in data set [4] (5:95 MeOH/pH 7 buffer) it was 10-17. For the same compound, the “ozone level correlating to S/B, based on linear regression” value in data set [4] is 13-22 ppb. The “time required for completion of conversion of compound 4 to compound 7” value in data set [5] (setting [7]) was 15 to 20 min; in data set [5] (setting [8]) it was 60 min. The figures for the “time sufficient to observe fluorescence signal” value in data set [5] (setting [7]) and in data set [5] (setting [8]) were less than 5 min and 10 to 15 min, respectively. Also, the quantum yield in data set [6] is 0.00132.
